Literature values, collected in US20230158084A1, “PROBIOTICS, METABOLITES, AND USES THEREOF” (California Institute of Technology, priority 2018, published 2023).

Details: adult mice; cited from earlier work

In the case of `C1=NCCCC1` [1-piperideine], the “conversion to 5AV in the brain” value is listed as “rapidly converted to 5AV” and the “entry into the brain” value is listed as “can enter the brain”.
